Activity data for 58 compounds are collected here from publication PMC5118696, “Identification of inhibitors that dually target the new permeability pathway and dihydroorotate dehydrogenase in the blood stage of Plasmodium falciparum” (Scientific Reports, 2016).

Where two headings read alike, the source gives them in different places.

In test [1] the test system is Hyp1-NLuc Plasmodium falciparum-infected erythrocytes (new permeability pathway, NPP). As to the kind of experiment: microbe, parasite or virus in culture. To be noted: Erythrocyte, 0.33 h, read-out: % of control remaining.
Test [2] shares this test system. Put plainly: microbe, parasite or virus in culture. To be noted: Erythrocyte, 0.33 h, read-out: Mean RLU at 28 min (As % of DMSO control).

In the case of `Cc1ccc(Cl)cc1N1CCN(CCCNC(=O)C2CCN(c3nc4ccccc4[nH]3)CC2)CC1` [MMV019746], the activity at 2 µM in test [1] was found to be 112%; in test [2], 105%.
For `COc1ccc(C(=O)Nc2ccc3nc(N4CCCCC4)cc(C)c3c2)cc1OC` [MMV019758], in that order: 108% and 100%.
For `COc1cccc(C(=O)Nc2ccc(-c3nc4ccccc4[nH]3)cc2)c1` [MMV019762], in that order: 97.1% and 96.5%.
For `Cc1cc(C)c2nc(N3CCC(C(=O)NCCCN4CCC(N5CCCCC5)CC4)CC3)sc2c1` [MMV019780], in that order: 111% and 107%.
In the case of `Fc1ccc2[nH]c3c(NCCCN4CCOCC4)ncnc3c2c1` [MMV019871], the activity at 2 µM in test [1] was 102%; in test [2], 106%.
Turning to `O=C(NC1CCN(Cc2ccccc2)CC1)c1cc(C(=O)NC2CCN(Cc3ccccc3)CC2)cc(C(=O)NC2CCN(Cc3ccccc3)CC2)c1` [MMV019881], the values for the activity at 2 µM in test [1] and in test [2] were 111% and 110%, respectively.
As for `Clc1cc(Br)ccc1-c1ccc(CNCC2CCNCC2)o1` [MMV019918], the values for the activity at 2 µM in test [1] and in test [2] were 111% and 114%, respectively.
For `O=C(NCCCN1CCC(N2CCCCC2)CC1)C1=Cc2cc(Br)ccc2OC1` [MMV019995], the activity at 2 µM in test [1] and in test [2] was 106% throughout.
As for `Cc1cc(N(C)C)nc(Nc2ccc(NC(=O)Nc3ccccc3)cc2)n1` [MMV020243], the results for the activity at 2 µM in test [1] and in test [2] were 104% and 106%, respectively.
Regarding `O=C(NC1CCN(Cc2ccccc2)CC1)c1cc(-c2ccncc2)nc2ccc(Cl)cc12` [MMV020275], the activity at 2 µM in test [1] and in test [2] was 115% throughout.
Take `COc1ccc(-c2cn3c(C(=O)Nc4ccccc4Cl)c(-c4ccccc4)c4c3n2CCCC4)cc1` [MMV020403]: the activity at 2 µM in test [1] amounted to 106%; in test [2], 103%.
For the compound `CCn1c(CN2CCN(Cc3ccccc3)CC2)nc2cc(NC(=O)c3cccs3)ccc21` [MMV020439], the activity at 2 µM in test [1] is 18.4%; in test [2], 20.1%.
Taken in the same sequence, the figures for `O=C(NC1CCN(Cc2ccccc2)CC1)c1cc(-c2cccnc2)nc2ccc(Cl)cc12` [MMV020490] were 98.9% and 101%.
As to `CC1CN(C(=O)c2sc3ccccc3c2Cl)CC(C)O1` (centres unmarked) [MMV020492], the activity at 2 µM stood at 102% in test [1] and 103% in test [2].
Take `CNCCCNc1ccnc2cc(Cl)ccc12` [MMV020500]: the activity at 2 µM in test [1] worked out at 97.7%; in test [2] it was 98.7%.
For the compound `CN(C)CCCNCc1ccc(-c2ccc(F)c(Cl)c2)o1` [MMV020505], the activity at 2 µM is 106% in test [1] and 105% in test [2].
For `CCN1CCN(Cc2ccc(NC(=O)c3cc4ccc5cccnc5c4[nH]3)cc2)CC1` [MMV020548], in that order: 55.5% and 92.8%.
Take `CC1CCN(Cc2ccc(NC(=O)c3cc4ccc5cccnc5c4[nH]3)cc2)CC1` [MMV020549]: the activity at 2 µM in test [1] stood at 90.5%; in test [2], 102%.
Take `O=C(Nc1ccc(CN2CCOCC2)cc1)c1ccc(-c2cc(Cl)ccc2Cl)o1` [MMV020651]: the figures for the activity at 2 µM in test [1] and in test [2] were 103% and 105%, respectively.
Taken in the same sequence, the figures for `CCC(O)c1ccc(Br)cc1NC(=O)c1cccc(Cl)c1` (centres unmarked) [MMV020654] were 105% and 113%.
Taken in the same sequence, the figures for `COc1ccc(-c2nonc2NC(=O)c2cccc(Cl)c2)cc1OC` [MMV020660] were 109% and 108%.
For `CC(=O)Nc1nnc(SCc2c(C)cc(C(C)(C)C)cc2C)s1` [MMV020700], in that order: 115% and 114%.
As for `COc1cc(-c2nc(-c3ccccc3)c(-c3ccccc3)[nH]2)cc(OC)c1O` [MMV020750], the activity at 2 µM in test [1] amounted to 109%; in test [2] it was 102%.
For `Oc1ccccc1CNCC12CC3CC(CC(C3)C1)C2` [MMV020788], in that order: 109% and 108%.
Consider `COc1ccc(Br)cc1C1Nc2ccc3ccccc3c2C2=C1C(=O)CC(c1ccccc1)C2` (centres unmarked) [MMV020885], for which the activity at 2 µM in test [1] stood at 97.2%; in test [2] it was 100%.
Taken in the same sequence, the figures for `Cc1ccc(-c2nc3ccccc3o2)cc1NCc1cc(Cc2ccccc2)ccc1O` [MMV020912] were 94.7% and 99.2%.
Consider `CCC(=O)Nc1nnc(Cc2ccc(OC)c(OC)c2)s1` [MMV020942], for which the activity at 2 µM in test [1] and in test [2] was 102% in each case.
For the compound `COc1cc(SC)ccc1C(=O)N1CCCC(C)C1` (centres unmarked) [MMV056726], the values for the activity at 2 µM in test [1] and in test [2] were 123% and 122%, respectively.
For the compound `CN(C)c1ccc(N=Cc2ccc(N3CCOCC3)cc2)cc1` [MMV073843], the activity at 2 µM in test [1] and in test [2] was 104% throughout.
As to `CCOc1ccc(C2N(C)c3ccccc3N2C)cc1` [MMV075490], the activity at 2 µM in test [1] was 116%; in test [2] it was 117%.
As to `Nc1nc(Nc2cccc(F)c2)nc2ccccc12` [MMV080034], the activity at 2 µM in test [1] was 94.5%; in test [2] it was 93.1%.
As to `COc1ccc(C=C2SC(Nc3ccc(F)cc3)=NC2=O)c(OC)c1` [MMV084434], the activity at 2 µM in test [1] is 27.1%; in test [2], 36.5%.
Taken in the same sequence, the figures for `COc1cc2c(cc1OC)C1=NNC(=O)C1=NC(C)(C)C2` [MMV084940] were 101% and 101%.
For `COc1ccccc1N=C1C(=O)c2ccccc2C(O)=C1N1CCCCC1` [MMV085203], in that order: 104% and 107%.
As for `CCOc1ccc(-n2cc(-c3ccccc3)c3c(SCc4cc(C)ccc4C)ncnc32)cc1` [MMV085471], the activity at 2 µM in test [1] was determined as 118%; in test [2] it was 104%.
Taken in the same sequence, the figures for `CCCCCC(=O)N1c2ccccc2N=C2CC(c3ccc(OC)c(OC)c3)CC(O)=C2C1c1ccc(C(F)(F)F)cc1` (centres unmarked) [MMV085583] were 102% and 103%.
As for `Cc1ccc(C(=O)c2oc3ccc4c(C)cc(=O)oc4c3c2C)cc1` [MMV086103], the results for the activity at 2 µM in test [1] and in test [2] were 95.7% and 94.6%, respectively.
In the case of `COc1cc(CNCCc2ccc(Cl)cc2)cc(OC)c1O` [MMV128432], the activity at 2 µM was determined as 97.8% in test [1] and 97.7% in test [2].
Consider `CC(C)(C)c1ccc(C(=O)Nc2nc3ccccc3s2)cc1` [MMV142383], for which the activity at 2 µM was found to be 121% in test [1] and 110% in test [2].
Taken in the same sequence, the figures for `COc1ccc2nc(C)cc(Nc3ccccc3O)c2c1` [MMV274073] were 110% and 110%.
With `COc1ccc(-c2nc(N3CCN(C(=O)C4CCCCC4)CC3)c3c4c(sc3n2)CCCC4)cc1` [MMV396594], the activity at 2 µM was determined as 87.1% in test [1] and 88.9% in test [2].
For `CCOc1ccccc1CN1CCc2nc3cc(C(C)(C)C)nn3c(O)c2C1` [MMV396595], the activity at 2 µM is 86.5% in test [1] and 88.3% in test [2].
For the compound `CCOc1c(Cl)cc(CNCC(O)c2ccccc2)cc1OC` (centres unmarked) [MMV396632], the activity at 2 µM in test [1] came out at 101%; in test [2], 99.9%.
For `CCOc1cc(CNC(C)C(O)c2ccccc2)cc(Cl)c1OCC` (centres unmarked) [MMV396633], in that order: 114% and 113%.
On to `O=C(NC1CCN(Cc2ccccc2)CC1)c1cc2nc(-c3ccc(Cl)s3)cc(C(F)(F)F)n2n1` [MMV396635], for which the activity at 2 µM in test [1] and in test [2] was 101% throughout.
Regarding `Cc1sc(NC(=O)c2ccccc2)c(C(c2cccs2)N2CCN(c3ccccc3)CC2)c1C` (centres unmarked) [MMV396652], the activity at 2 µM in test [1] worked out at 104%; in test [2] it was 101%.
Taken in the same sequence, the figures for `Cc1sc(NC(=O)c2ccco2)c(C(c2cccnc2)N2CCC(Cc3ccccc3)CC2)c1C` (centres unmarked) [MMV396663] were 92.5% and 97%.
Turning to `CCOC(=O)c1c(C)n(-c2ccccc2)c2ccc(OC(=O)c3cc(OC)c(OC)c(OC)c3)cc12` [MMV396664], the activity at 2 µM in test [1] stood at 97.3%; in test [2], 94.9%.
Taken in the same sequence, the figures for `COc1cc(C(=O)Nc2nc3c(cc4c5c(cccc53)CC4)s2)cc(OC)c1OC` [MMV396665] were 102% and 103%.
For `Cc1cc(N2CCCC2)nc(Nc2ccc(NC(=O)CCc3ccccc3)cc2)n1` [MMV396669], the activity at 2 µM amounted to 76.3% in test [1] and 90.3% in test [2].
Turning to `O=C(NCC(c1ccsc1)N1CCCCCC1)c1ccc(C(F)(F)F)cc1` (centres unmarked) [MMV396672], the activity at 2 µM turned out to be 98.1% in test [1] and 101% in test [2].
Regarding `O=C(CSc1nccn2nc(-c3ccccc3)cc12)Nc1cc(C(F)(F)F)ccc1Cl` [MMV396678], the activity at 2 µM in test [1] and in test [2] was 107% in each case.
Regarding `COc1ccc(-c2cc3c(SCC(=O)Nc4cc(C(F)(F)F)ccc4Cl)nccn3n2)cc1` [MMV396679], the activity at 2 µM in test [1] is 105%; in test [2], 106%.
For `Cc1ccc(-c2cc3c(SCC(=O)Nc4cc(C(F)(F)F)ccc4Cl)nccn3n2)cc1` [MMV396680], in that order: 101% and 106%.
For `Cc1cc(NC(=O)c2cccc(C(F)(F)F)c2)n(-c2nc(-c3ccc4c(c3)OCO4)cs2)n1` [MMV396681], in that order: 102% and 106%.
For `C[n+]1c2ccccc2nc2ccc(NCCO)cc21` [MMV396693], the activity at 2 µM stood at 100% in test [1] and 101% in test [2].
`CCN(CC)CCNc1ncnc2c1[nH]c1ccc(Cl)cc12` [MMV396703]: the activity at 2 µM in test [1] amounted to 99.7%; in test [2], 110%.
Taken in the same sequence, the figures for `CN1CCN(c2ncnc3c2[nH]c2ccc(Cl)cc23)CC1` [MMV396704] were 95.6% and 95.9%.
